Test results: PubChem BioAssay (NCI)
Several values for one entry are separate records, joined by “and”; a condition that tells them apart may be missing. Identical values can stand only once.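 A five-concentration, 48-hour dose response in 96-well plates underlies each endpoint, interpolated linearly between surrounding concentrations. Abbreviation: GI50, concentration required for 50% inhibition of growth. TGI: total growth inhibition.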

Key:
Test in all cases: growth of human tumour cells (NCI), 48 h
[1] = tested on: TK-10 renal
[2] = tested on: CCRF-CEM leukemia
[3] = tested on: SNB-19 CNS
[4] = tested on: PC-3 prostate
[5] = tested on: OVCAR-3 ovarian
[6] = tested on: SK-MEL-28 melanoma
[7] = tested on: DU-145 prostate
[8] = tested on: RPMI-8226 leukemia
[9] = tested on: T-47D breast
[10] = tested on: NCI-H23 lung
[11] = tested on: SNB-75 CNS
[12] = tested on: A498 renal
[13] = tested on: IGROV1 ovarian
[14] = tested on: HOP-62 NSCLC
[15] = tested on: MDA-MB-231 breast
[16] = tested on: SK-OV-3 ovarian
[17] = tested on: HCC-2998 colon
[18] = tested on: KM12 colon

SMILES	TGI [1] [µM]	TGI [2] [µM]	TGI [3] [µM]	TGI [4] [µM]	TGI [5] [µM]	TGI [6] [µM]	TGI [7] [µM]	TGI [8] [µM]	TGI [9] [µM]	TGI [10] [µM]	TGI [11] [µM]	TGI [12] [µM]	TGI [13] [µM]	TGI [14] [µM]	TGI [15] [µM]	TGI [16] [µM]	TGI [17]	TGI [18] [µM]	GI50 [18]
CCCCCCCCCCCCCCCCCCNc1ccn(C2OC(COP(=O)(O)OCCCCCCCCCCCCCCCC)C(O)C2O)c(=O)n1 (configuration not stated)	> 100	> 100	> 100	> 100	> 100	> 100	> 100	> 100	> 100	> 100	> 100	> 100	> 100	> 100	> 100	> 100	> 100 µM	> 100	
CCOc1ccccc1N=NC1C(=O)N(C(=O)CC(=O)Nc2ccccc2Cl)N=C1C (configuration not stated)	> 100	> 100		> 100	> 100	> 100	> 100	> 100	> 100	> 100	> 100	> 100	> 100	68.8	> 100	90.3	> 100 µM	> 100	
COC(=O)c1ccc(NCc2cc(O)c3ccccc3c2O)cc1	39.1	16.3	> 81.8	33.5	28.2	18.3	30.3	15.1	40.7	30.3	56.6	36.7	25.5	32.5	6.02	31.6	39.9 µM	> 50	
C[C@@H]1O[C@@H]2OCC[C@@H]2C2=C1C(=O)c1ccccc1C2=O	34.1	33.8	36.5	> 100	10.2	51.5	21	30.9	31.9	23.4	41.9	32.4	10.8	31.5	> 100	89.9	35.4 µM	30.7	
CC(C)C(OC(=O)c1cc(NC(=S)c2ccccc2)ccc1Cl)C(C)C	> 86.3	> 96.7	> 100	38.4	52.5	> 90	> 100	> 73.5	29.5	35.7	59.1	58.4	> 100	> 100	57.4	99.4	> 53.1 µM	39.6	
COC(=O)c1c(C)cccc1C1CN=NC12Cc1c(C)cccc1C2=O (configuration not stated)	> 100	> 100	> 100	> 100	> 100	> 100	> 100	> 100	> 100	> 100	> 100	> 100	> 100	> 100	> 100	> 100	> 100 µM	> 100	
Cc1ccc(-c2n[nH]c(=O)n2N)cc1	> 100	> 100	> 100	> 100	> 100	> 100	> 100	> 100	> 100	> 100	> 100	> 100	> 100	> 100	> 100	> 100	> 100 µM	> 100	
COc1ccc(C(F)(F)F)cc1NC(=O)O/N=C(/Cl)C(C)C	28.4	31.9	42.6	34.5	34.8	48.5	34.3	6.05	45.5	40.2	44.4	66.2	36.2	46	37.4	> 67.3	39.3 µM	> 60.2	
COc1ccc(Oc2nc3cc(C(F)(F)F)ccc3nc2C(C)C)cc1	> 100	> 100	> 100	> 100	93.3	> 100	> 100	42.4	54.4	52.6	95.7	58.3	82.7	> 100	79	> 100	41.5 µM	> 100	
CCN(CC)CC1CCCCN1CC(=O)N1c2ccc(Br)cc2C(=O)Nc2cccnc21 (configuration not stated)	> 100	> 100	> 100	> 100	> 100	> 100	> 100	> 100	> 100	> 100	59.4	> 100	> 100	> 100	> 100	> 100	> 100 µM	> 100	
O=C(/C=C/c1ccc(O)c(O)c1)Oc1ccccc1	> 100	42.8	> 80.9	> 76.9	47.6	> 100	43.8	45	65.2	46.2	44.2	> 100	30.6	49.2	61.8	> 100	> 58.8 µM	40.4	
O=C1C=CC(=O)c2c(O)c(Nc3ccc(OC(F)(F)F)cc3)c(Cl)c(O)c21	2.81	4.32	2.6	9.62	1.45	1.97	1.37	0.285	0.972	0.708	1.79	9.36		2.57	1.41	3.19	1.27 µM	2.95	
CNC(=S)N/N=C(\C)c1ccc(OC)cc1O		> 100	> 100	> 100	> 100	> 100	> 100	> 100	> 100	> 100	> 100	> 100	> 100	> 100	> 100	> 100	> 100 µM	> 100	
COc1ccc(OC)c2c1C(=O)C(Cl)=C(Cl)C2=O	9.83	> 100	> 77.4	27.6	7.85	12.8	37.6	> 27.6	8.09	19.2	29.1	41.6	31.1		6.57	67.4	31.2 µM	33.8	
S=C(NNC1=NCCCCN1)Nc1ccccc1		> 100	> 100	> 100	> 100	> 100	> 100	> 100	> 100	> 100	> 100	> 100	> 100	> 100	> 100	> 100	> 100 µM	> 100	
Cc1nc(SCC(=O)Nc2ccccc2)c2sc(=S)n(-c3ccccc3)c2n1	> 10	> 10	> 10	> 10	> 10	> 10	> 10	> 10	> 10	> 10	> 10	> 10	> 10	> 10	> 10	> 10	> 10 µM	> 10	
CC(=O)OCC1OC(Sc2nc(-c3ccc(C)cc3)c(C#N)c(=O)n2C2OC(COC(C)=O)C(OC(C)=O)C(OC(C)=O)C2OC(C)=O)C(OC(C)=O)C(OC(C)=O)C1OC(C)=O (configuration not stated)	> 100	> 100	> 100	> 100	> 100	> 100	> 100	> 100	> 100	> 100	> 100	> 100	> 100	> 100	> 100	> 100	> 100 µM and 33.2 µM	> 100	> 100 µM and 38.7 µM
COc1ccc(C(=O)N=C2N(c3ccccc3)C(=Nc3ccccc3)C(=Nc3ccccc3)N2c2ccccc2)cc1	> 61.2	> 100	> 100	> 65.5	> 100	> 66.6	> 100	> 100	> 100	> 100	27.2	61.1	> 100	57.5	> 100	> 100	> 100 µM	> 100	
CCOC(=O)c1c2ccccc2n2c(=O)n(C)nnc12	> 100	> 100	> 100	> 100	> 100	> 100	> 100	> 100	> 100	> 100	> 100	> 100	> 100	> 100	> 100	> 100	> 100 µM	> 100	
OC(CCN1CCN(CCOC(c2ccc(F)cc2)c2ccc(F)cc2)CC1)c1ccccc1 (configuration not stated)	29.2	45.6	30.7	26.7	31.4	35.7	32.8	43	28.7	31.1	27.5	19.5	27.1	36.5	28.8	32.5	12.4 µM	44	
CCCC/C=C1\CCC(CN2CCOCC2)C1=O (configuration not stated)	19.5	3.35	29.6	26.2	19.3	7.97	32.8	2.59	31.3	12.2	20.7	27.4	29.2	30.2	14.5	31	22.1 µM	7.38	
CCCCC/C=C1\CCC(CN2CCOCC2)C1=O (configuration not stated)	18.9	29.9	32.4	30.9	12.2	21.2	33.2	3.02	9.95	29.8	33.5	33.9	33	54.5	> 23.2	35.3	27.7 µM	10.7	
COc1ccc(-c2c(N)n(-c3cc(OC)cc(OC)c3)c(=O)c3cc([N+](=O)[O-])ccc23)cc1	> 100	> 100	99.5	> 100	> 100	> 100	> 100	> 100	> 100	> 100	> 100	98.5	> 100	> 100	> 100	> 100	> 100 µM	> 100	
CC1=CC(=O)c2cccc(O)c2C1=O	5.05	14.7	17.4	5.7	2.96	7.81	20.6	> 40.3	3.72	7.32	18	33.5	26	30.9	3.15	27.4	16.8 µM	25.3	
Cc1occc1C(=S)Nc1ccc(Cl)c(C(=O)OCC2CC2)c1	> 100	91.5	> 100	> 100	> 100	> 100	> 100	85.5	> 100	> 100	70.1	> 100	> 100		> 100	> 100	> 100 µM	96.3	
N#CC1(C#N)C(c2ccccc2)NC23CCCCC2C1(C#N)C(=O)N3 (configuration not stated)		> 100	> 100	> 100	> 100	> 100	> 100	> 100	> 100	> 100	> 100	> 100	> 100	> 100	> 100	> 100	> 100 µM	> 100	
